Measured values taken from patent US20240317721A1, “PYRAZOLYL DERIVATIVES AS INHIBITORS OF THE KRAS MUTANT PROTEIN” (NOVARTIS AG, priority 2021, published 2024).

biological target: KRasG12C (M1-K169, biotinylated on the N-terminus) (Homo sapiens (Human), UniProt P01116, G12C); assay: Covalent competition assay: scintillation proximity assay (SPA) quantifying covalent modification of KRASG12C; assay type: binding; conditions: competition with radiolabeled covalent probe (Compound B/Compound A), 2 hours incubation, 10 nM KRasG12C
Outline: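 Scintillation proximity readout after streptavidin bead capture (30 min) of biotinylated KRasG12C(M1-K169):GDP, 10 nM final, which was covalently labelled over 2 h by 25 nM radio-probe plus 475 nM cold probe unless blocked by compound.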

| Structure (SMILES) | IC50 |
| --- | --- |
| C=CC(=O)N1CC2(CC(n3nc(N4CCN(C5COC5)CC4(C)C)c(-c4c(Cl)c(C)cc5[nH]ncc45)c3C)C2)C1 (single isomer, unassigned) [Example 67b, 1-(6-(4-(5-chloro-6-methyl-1H-indazol-4-yl)-3-(2,2-dimethyl-4-(oxetan-3-yl)piperazin-1-yl)-5-methyl-1H-pyrazol-1-yl)-2-azaspiro[3.3]heptan-2-yl)prop-2-en-1-one] | 0.038 µM |
| C=CC(=O)N1CC2(CC(n3nc(N4CCC5(CN(C6COC6)C5)CC4(C)C)c(-c4c(Cl)c(Cl)cc5[nH]ncc45)c3C)C2)C1 (single isomer, unassigned) [Example 92b, 1-(6-(4-(5,6-dichloro-1H-indazol-4-yl)-3-(6,6-dimethyl-2-(oxetan-3-yl)-2,7-diazaspiro[3.5]nonan-7-yl)-5-methyl-1H-pyrazol-1-yl)-2-azaspiro[3.3]heptan-2-yl)prop-2-en-1-one] | 0.007 µM |
| C=CC(=O)N1CC2(CC(n3nc(N4CCN(Cc5ccccc5)CC45CCC5)c(-c4c(Cl)c(C)cc5[nH]ncc45)c3C)C2)C1 (single isomer, unassigned) [Example 100a, 1-(6-(3-(8-benzyl-5,8-diazaspiro[3.5]nonan-5-yl)-4-(5-chloro-6-methyl-1H-indazol-4-yl)-5-methyl-1H-pyrazol-1-yl)-2-azaspiro[3.3]heptan-2-yl)prop-2-en-1-one] | > 5 µM |
| C=CC(=O)N1CC2(CC(n3nc(N4C[C@H](C)N(C5COC5)CC4(C)C)c(-c4c(Cl)c(Cl)cc5[nH]ncc45)c3C)C2)C1 (single isomer, unassigned) [Example 104b] | 0.027 µM |
| C=CC(=O)N1CC2(CC(n3nc(N4CCCC45CCOCC5)c(-c4c(Cl)c(C)cc5[nH]ncc45)c3C)C2)C1 [Example 60, 1-(6-(4-(5-chloro-6-methyl-1H-indazol-4-yl)-5-methyl-3-(8-oxa-1-azaspiro[4.5]decan-1-yl)-1H-pyrazol-1-yl)-2-azaspiro[3.3]heptan-2-yl)prop-2-en-1-one] | 4.9 µM |
| C=C(F)C(=O)N1CC2(CC(n3nc(N4CCN(C[C@@H]5COCCO5)C[C@]4(C)CC)c(-c4c(Cl)c(C)cc5[nH]ncc45)c3C)C2)C1 (single isomer, unassigned) [Example 174b] | 0.121 µM |
| C=CC(=O)N1CC2(CC(n3nc(N4CCN(C5CC6(COC6)C5)CC45CCC5)c(-c4c(Cl)c(C)cc5[nH]ncc45)c3C)C2)C1 (single isomer, unassigned) [Example 135a, 1-(6-(3-(8-(2-oxaspiro[3.3]heptan-6-yl)-5,8-diazaspiro[3.5]nonan-5-yl)-4-(5-chloro-6-methyl-1H-indazol-4-yl)-5-methyl-1H-pyrazol-1-yl)-2-azaspiro[3.3]heptan-2-yl)prop-2-en-1-one] | > 5 µM |
| C=CC(=O)N1CC2(CC(n3nc(N4CC5(CCOC5)C4)c(-c4c(Cl)c(Cl)cc5[nH]ncc45)c3C)C2)C1 (single isomer, unassigned) [Example 108a, 1-(6-(4-(5,6-dichloro-1H-indazol-4-yl)-5-methyl-3-(6-oxa-2-azaspiro[3.4]octan-2-yl)-1H-pyrazol-1-yl)-2-azaspiro[3.3]heptan-2-yl)prop-2-en-1-one] | > 5 µM |
| C=CC(=O)N1CC2(CC(n3nc(N4CCN(C5COC5)C[C@]4(C)CC)c(-c4c(Cl)c(C)cc5[nH]ncc45)c3C)C2)C1 (single isomer, unassigned) [Example 133a] | 1.6 µM |

The remaining lines, values ahead:

| IC50 | Structure (SMILES) |
| --- | --- |
| > 5 µM | C=CC(=O)N1CC2(CC(n3nc(N4CCC(CN5C[C@@H]6OCCO[C@@H]6C5)CC4(C)C)c(-c4c(Cl)c(Cl)cc5[nH]ncc45)c3C)C2)C1 (single isomer, unassigned) [Example 232a] |
| > 5 µM | C=CC(=O)N1CC2(CC(n3nc(N4CC[C@@H](CN5CC6C5CCN6C5COC5)CC4(C)C)c(-c4c(Cl)c(Cl)cc5[nH]ncc45)c3C)C2)C1 (single isomer, unassigned) [Example 278a, 1-(6-(4-(5,6-dichloro-1H-indazol-4-yl)-3-((R)-2,2-dimethyl-4-(((1S*,5S*)-2-(oxetan-3-yl)-2,6-diazabicyclo[3.2.0]heptan-6-yl)methyl)piperidin-1-yl)-5-methyl-1H-pyrazol-1-yl)-2-azaspiro[3.3]heptan-2-yl)prop-2-en-1-one] |
| 0.061 µM | C=C(F)C(=O)N1CC2(CC(n3nc(N4CCN(C[C@@H]5COCCO5)C[C@]4(C)COC)c(-c4c(Cl)c(Cl)cc5[nH]ncc45)c3C)C2)C1 (single isomer, unassigned) [Example 184b] |
| 1.1 µM | C=CC(=O)N1CC2(CC(n3nc(N4CC[C@@H](CN5CC(O)C(OC)C5)CC4(C)C)c(-c4c(Cl)c(Cl)cc5[nH]ncc45)c3C)C2)C1 (single isomer, unassigned) [Example 273a, 1-(6-(4-(5,6-dichloro-1H-indazol-4-yl)-3-((R)-4-(((3S*,4S*)-3-hydroxy-4-methoxypyrrolidin-1-yl)methyl)-2,2-dimethylpiperidin-1-yl)-5-methyl-1H-pyrazol-1-yl)-2-azaspiro[3.3]heptan-2-yl)prop-2-en-1-one] |
| 0.405 µM | C=CC(=O)N1CC2(CC(n3nc(N4CCC(CN5CCOCC5)CC4(C)COC)c(-c4c(Cl)c(Cl)cc5[nH]ncc45)c3C)C2)C1 (single isomer, unassigned) [Example 221b, 1-(6-(4-(5,6-dichloro-1H-indazol-4-yl)-3-(2-(methoxymethyl)-2-methyl-4-(morpholinomethyl)piperidin-1-yl)-5-methyl-1H-pyrazol-1-yl)-2-azaspiro[3.3]heptan-2-yl)prop-2-en-1-one] |
| 0.006 µM | C=CC(=O)N1CC2(CC(n3nc(N4CC[C@@H](CN5CCC[C@H]5C(=O)N(C)C)CC4(C)C)c(-c4c(Cl)c(Cl)cc5[nH]ncc45)c3C)C2)C1 (single isomer, unassigned) [Example 313b] |
| 0.007 µM | C=CC(=O)N1CC2(CC(n3nc(N4CC[C@@H](CN5CCCN(C(C)=O)CC5)CC4(C)C)c(-c4c(Cl)c(Cl)cc5[nH]ncc45)c3C)C2)C1 (single isomer, unassigned) [Example 315b] |
| 1.5 µM | C=CC(=O)N1CC2(CC(n3nc(N4CCN(CC5COCCOC5)C[C@]4(C)CC)c(-c4c(Cl)c(C)cc5[nH]ncc45)c3C)C2)C1 (single isomer, unassigned) [Example 186a] |
| 0.015 µM | C=CC(=O)N1CC2(CC(n3nc(N4CCN(C[C@H]5COCCO5)CC45CCC5)c(-c4c(Cl)c(C)cc5[nH]ncc45)c3C)C2)C1 (single isomer, unassigned) [Example 189b] |
| 0.015 µM | C=CC(=O)N1CC2(CC(n3nc(N4CCN(CC5COCCOC5)CC45CCC5)c(-c4c(Cl)c(C)cc5[nH]ncc45)c3C)C2)C1 (single isomer, unassigned) [Example 185b, 1-(6-(3-(8-((1,4-dioxepan-6-yl)methyl)-5,8-diazaspiro[3.5]nonan-5-yl)-4-(5-chloro-6-methyl-1H-indazol-4-yl)-5-methyl-1H-pyrazol-1-yl)-2-azaspiro[3.3]heptan-2-yl)prop-2-en-1-one] |
| 0.008 µM | C=CC(=O)N1CC2(CC(n3nc(N4CCC(CN5CC6COCC6C5)CC4(C)C)c(-c4c(Cl)c(Cl)cc5[nH]ncc45)c3C)C2)C1 (single isomer, unassigned) [Example 227b, 1-(6-(4-(5,6-dichloro-1H-indazol-4-yl)-3-(2,2-dimethyl-4-((tetrahydro-1H-furo[3,4-c]pyrrol-5(3H)-yl)methyl)piperidin-1-yl)-5-methyl-1H-pyrazol-1-yl)-2-azaspiro[3.3]heptan-2-yl)prop-2-en-1-one] |
